Experimental findings from patent US20050032873A1, “3-Amino chroman and 2-amino tetralin derivatives” (Wyeth, priority 2003, published 2005) are described below.

Structures can show the parent of a compound that is named as a salt. Where two headings read alike, the source gives them in different places.

The target in data set [1] is T1, 5-HT1A receptor (Homo sapiens, UniProt P08908).
T1 sequence (P08908 1-422): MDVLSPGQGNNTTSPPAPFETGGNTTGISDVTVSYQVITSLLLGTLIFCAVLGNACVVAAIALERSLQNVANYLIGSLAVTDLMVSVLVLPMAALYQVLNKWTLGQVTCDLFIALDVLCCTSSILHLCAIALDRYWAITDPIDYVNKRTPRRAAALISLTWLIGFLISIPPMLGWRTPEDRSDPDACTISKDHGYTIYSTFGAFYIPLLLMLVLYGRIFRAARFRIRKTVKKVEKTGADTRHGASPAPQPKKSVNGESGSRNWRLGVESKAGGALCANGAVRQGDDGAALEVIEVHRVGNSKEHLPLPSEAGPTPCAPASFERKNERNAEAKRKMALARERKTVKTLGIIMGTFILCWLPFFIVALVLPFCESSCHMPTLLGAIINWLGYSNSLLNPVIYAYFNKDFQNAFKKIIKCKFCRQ
As to the kind of experiment: 5-HT1A receptor affinity: displacement of [3H] 8-OH-DPAT. Format: binding. Further details: expressed in transfected cells. The note with it: displacement of [3H] 8-OH-DPAT; CHO cells stably transfected with human 5-HT1A receptors; read-out: 5-HT1A Receptor Affinity Ki.

The target of data set [2] is T1, 5-HT1A receptor. As to the kind of experiment: cAMP accumulation assay, 5-HT1A function. Format: cell-based. Conditions: for EC50: cells marked EC50 (agonist); for Emax: read-out: 5-HT1A Function cAMP (Emax).
Source text: (§1) The agonist or antagonist activity at 5-HT1A receptors was established by using two different assays. […] Agonists produce an increase in binding whereas antagonists produce no increase but rather reverse the effects of the standard agonist 8-OH-DPAT. The test compound's maximum stimulatory effect is represented as the Emax, while its potency is defined by the EC50. The test compound's maximum inhibitory effect is represented as the Imax, while its potency is defined by the IC50. The second assay measured cAMP accumulation upon binding of the ligand to the 5-HT1A receptor. […] The test compound's maximum stimulatory or inhibitory effect is represented as the Emax while its potency is defined by either IC50 for an antagonist or EC50 for an agonist. [^3H]-8-OH-DPAT was used to determine maximum agonist or antagonist response in both functional assays.
For data set [3], the target named is T2, cloned human 5-HT1A receptors (Homo sapiens, UniProt P08908).
T2 construct: expressed in transfected cells
T2 sequence (P08908 1-422): T1 sequence (P08908 1-422)
Put plainly: 35S-GTPγS binding assay, 5-HT1A function. Format: biochemical. The note with it: for IC50: antagonist potency, reversal of 8-OH-DPAT, read-out: 5-HT1A Function GTPγS IC50.
Source text: as §1

Another data set addresses T3, serotonin transporter (Rattus norvegicus, UniProt P31652).
T3 construct: displace ^3H-paroxetine from male rat cortical membranes; from tissue; host or cells: male rat cortical membranes
Put plainly: 5-HT transporter affinity: displacement of 3H-paroxetine from male rat cortical membranes. Conditions: displacement of 3H-paroxetine; male rat cortical membranes; read-out: 5-HT Transporter Affinity Ki. Format: binding.

The mark [4] stands for this setting: maximum inhibitory effect, in brackets after IC50, read-out: 5-HT1A Function GTPγS (Imax).

T3 sequence (P31652 whole entry): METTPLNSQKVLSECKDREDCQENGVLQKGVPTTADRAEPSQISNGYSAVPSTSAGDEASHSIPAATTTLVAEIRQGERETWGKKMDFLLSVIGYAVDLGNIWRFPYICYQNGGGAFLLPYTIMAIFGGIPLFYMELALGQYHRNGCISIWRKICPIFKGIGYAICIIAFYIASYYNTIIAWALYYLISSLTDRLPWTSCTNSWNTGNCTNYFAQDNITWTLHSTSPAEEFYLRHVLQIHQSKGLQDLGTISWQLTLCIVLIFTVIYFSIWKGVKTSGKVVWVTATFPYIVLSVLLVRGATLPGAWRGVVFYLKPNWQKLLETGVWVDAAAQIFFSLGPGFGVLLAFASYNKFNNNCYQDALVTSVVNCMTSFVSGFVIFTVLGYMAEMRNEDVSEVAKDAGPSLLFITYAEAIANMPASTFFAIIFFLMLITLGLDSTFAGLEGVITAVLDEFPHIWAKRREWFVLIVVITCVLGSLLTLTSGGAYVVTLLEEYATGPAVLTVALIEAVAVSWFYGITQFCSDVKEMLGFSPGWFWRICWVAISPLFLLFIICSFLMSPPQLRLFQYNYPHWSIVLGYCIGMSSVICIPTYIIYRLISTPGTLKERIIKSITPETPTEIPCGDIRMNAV

As to `COc1cccc2c1CC(N[C@H]1CC[C@H](c3c[nH]c4ccc(F)cc43)CC1)CO2` (relative stereo) (as salt: hydrochloride) [Compound 181b, trans-N-[4-(5-fluoro-1H-indol-3-yl)cyclohexyl]-5-methoxychroman-3-amine], the melting point is 265 °C (dec.).

For the compound `CNC(=O)c1ccc(F)c2c1C[C@H](N(CCCCc1c[nH]c3ccc(F)cc13)C1CCC1)CO2` (as salt: hydrochloride) [Compound 145a, (3S)-3-{cyclobutyl[4-(5-fluoro-1H-indol-3-yl)butyl]amino}-8-fluoro-N-methylchromane-5-carboxamide], the melting point is 125 °C (dec.).

Regarding `COc1cccc2c1C[C@@H](N(CCCc1c[nH]c3ccc(F)cc13)C1CCC1)CO2` (as salt: hydrochloride) [Compound 35, (3R)-N-cyclobutyl-N-[3-(5-fluoro-1H-indol-3-yl)propyl]-5-methoxy-3,4-dihydro-2H-chromen-3-amine], the melting point was 115 °C (dec.).

In the case of `NC(=O)c1ccc(F)c2c1CC(NCCCc1c[nH]c3ccc(F)cc13)CO2` (single isomer, unassigned; (-)) (as salt: hydrochloride) [Compound 1b, (−)-8-fluoro-3-{[3-(5-fluoro-1H-indol-3-yl)propyl]amino}chromane-5-carboxamide], the melting point is 87 °C (dec.).

Regarding `NC(=O)c1ccc(F)c2c1C[C@@H](N(CCCc1c[nH]c3c(F)cc(F)cc13)CC1CC1)CO2` (as salt: hydrochloride) [Compound 147, (3R)-3-{(cyclopropylmethyl)[3-(5,7-difluoro-1H-indol-3-yl)propyl]amino}-8-fluorochromane-5-carboxamide], the melting point lay in the range of 147 to 151 °C.

For the compound `CCN(CCCCc1c[nH]c2ccc(F)cc12)C1COc2c(C(N)=O)ccc(F)c2C1` (stereo not shown) (as salt: hydrochloride) [Compound 127, 3-{ethyl[4-(5-fluoro-1H-indol-3-yl)butyl]amino}-5-fluorochromane-8-carboxamide], the melting point is 112 °C (dec.).

Turning to `COc1cccc2c1CC(N(CCCc1c[nH]c3ccc(F)cc13)C1CCCC1)CO2` (stereo not shown) (as salt: hydrochloride) [Compound 39, N-cyclopentyl-N-[3-(5-fluoro-1H-indol-3-yl)propyl]-N-(5-methoxy-3,4-dihydro-2H-chromen-3-yl)amine], the melting point is 112 °C (dec.).

For the compound `CCN(C(C)CCc1c[nH]c2ccc(F)cc12)C1COc2c(F)ccc(C(N)=O)c2C1` (single isomer, unassigned; (-)) (as salt: hydrochloride) [Compound 16a, (−)-3-{ethyl[3-(5-fluoro-1H-indol-3-yl)-1-methylpropyl]amino}-8-fluorochromane-5-carboxamide], the melting point is 132 °C (dec.).

With `COc1cccc2c(CCN(CC3CC3)C3COc4c(F)ccc(C(N)=O)c4C3)coc12` (stereo not shown) (as salt: hydrochloride) [Compound 160, 3-{(cyclopropylmethyl)[2-(7-methoxy-1-benzofuran-3-yl)ethyl]amino}-8-fluorochromane-5-carboxamide], the melting point is 130 to 138 °C (dec.).

Consider `O=C(NC1CCC1)c1ccc(F)c2c1CC(N(CCCc1c[nH]c3ccc(F)cc13)C1CCC1)CO2` (stereo not shown) (as salt: hydrochloride) [Compound 65, N-cyclobutyl-3-{cyclobutyl[3-(5-fluoro-1H-indol-3-yl)propyl]amino}-8-fluorochromane-5-carboxamide], for which the melting point was 135 °C (dec.).

`NC(=O)c1ccc(F)c2c1CC(N(CCCc1c[nH]c3cc(F)ccc13)C1CCC1)CO2` (stereo not shown) (as salt: hydrochloride) [Compound 53, 3-{cyclobutyl[3-(6-fluoro-1H-indol-3-yl)propyl]amino}-8-fluorochromane-5-carboxamide]: the melting point was 126 °C (dec.).

Regarding `CC(C)NC(=O)c1ccc(F)c2c1CC(N(CCCc1c[nH]c3ccc(F)cc13)C1CCC1)CO2` (stereo not shown) (as salt: hydrochloride) [Compound 63, 3-{cyclobutyl[3-(5-fluoro-1H-indol-3-yl)propyl]amino}-8-fluoro-N-isopropylchromane-5-carboxamide], the melting point is 127 °C (dec.).

With `O=C(NC1CC1)c1ccc(F)c2c1CC(N(CCCc1c[nH]c3ccc(F)cc13)C1CCC1)CO2` (stereo not shown) (as salt: hydrochloride) [Compound 64, 3-{cyclobutyl[3-(5-fluoro-1H-indol-3-yl)propyl]amino}-N-cyclopropyl-8-fluorochromane-5-carboxamide], the melting point was 134 °C (dec.).

Turning to `CCCN(CCCCc1c[nH]c2ccc(F)cc12)C1COc2c(C(N)=O)ccc(F)c2C1` (stereo not shown) (as salt: hydrochloride) [Compound 124, 5-fluoro-3-[[4-(5-fluoro-1H-indol-3-yl)butyl](propyl)amino]chromane-8-carboxamide], the melting point is 116 °C (dec.).

Compound `COc1cccc2c1CC(N(CCCc1c[nH]c3ccc(C#N)cc13)C1CCC1)CO2` (stereo not shown) (as salt: hydrochloride) [Compound 46, 3-{3-[cyclobutyl(5-methoxy-3,4-dihydro-2H-chromen-3-yl)amino]propyl}-1H-indole-5-carbonitrile] came in with a melting point of 133 to 137 °C.

For `CCCN(CCCCc1c[nH]c2ccc(F)cc12)C1COc2c(F)ccc(C(N)=O)c2C1` (stereo not shown) (as salt: hydrochloride) [Compound 81, 8-fluoro-3-[[4-(5-fluoro-1H-indol-3-yl)butyl](propyl)amino]chromane-5-carboxamide], the melting point was 115 °C (dec.).

For `CCCN(CCCc1c[nH]c2ccc(OC)cc12)C1COc2c(F)ccc(C(N)=O)c2C1` (stereo not shown) (as salt: hydrochloride) [Compound 106, 8-fluoro-3-[[3-(5-methoxy-1H-indol-3-yl)propyl](propyl)amino]chromane-5-carboxamide], the melting point is 145 to 152 °C (dec.).

In the case of `CCCCNC(=O)c1ccc(F)c2c1CC(N(CCCc1c[nH]c3ccc(F)cc13)C1CCC1)CO2` (stereo not shown) (as salt: hydrochloride) [Compound 62, N-butyl-3-{cyclobutyl[3-(5-fluoro-1H-indol-3-yl)propyl]amino}-8-fluorochromane-5-carboxamide], the melting point is 106 °C (dec.).

On to `CCCN(CCCc1c[nH]c2c(OC)cccc12)C1COc2c(F)ccc(C(N)=O)c2C1` (stereo not shown) (as salt: hydrochloride) [Compound 100, 8-fluoro-3-[[3-(7-methoxy-1H-indol-3-yl)propyl](propyl)amino]chromane-5-carboxamide], for which the melting point was 158 to 164 °C (dec.).

As to `CCCN(C(C)CCc1c[nH]c2ccc(F)cc12)C1COc2c(F)ccc(C(N)=O)c2C1` (single isomer, unassigned) [Compound 12b, 8-fluoro-3-[[3-(5-fluoro-1H-indol-3-yl)-1-methylpropyl](propyl)amino]-3,4-dihydro-2H-chromene-5-carboxamide], the figures for the Ki at 5-HT1A receptor [1] and on serotonin transporter were 0.0194 µM and 0.05 µM, respectively. Besides, the EC50 on 5-HT1A receptor [2] was 0.0626 µM; in data set [3] (agonist potency), 0.366 µM. The 5-HT1A Function cAMP (Emax) at 5-HT1A receptor [2] (in brackets after EC50 or IC50) came out at 78%. Besides, the Emax in data set [3] (maximum stimulatory effect, in brackets after EC50, read-out: 5-HT1A Function GTPγS (Emax)) was 73.5%.

As for `NC(=O)c1ccc(F)c2c1CC(N(CCCCn1ccc3c(F)cccc31)CC1CC1)CO2` (stereo not shown) [Compound 203, 3-{(Cyclopropylmethyl)[4-(4-fluoro-1H-indol-1-yl)butyl]amino}-8-fluorochromane-5-carboxamide], the Ki amounted to 0.00964 µM on 5-HT1A receptor [1] and 0.161 µM at serotonin transporter. For the same compound, on 5-HT1A receptor [2], the EC50 is 0.216 µM. In addition, the figures for the Emax (at 5-HT1A receptor [2] (in brackets after EC50 or IC50); in data set [3] (setting [4])) were 72% and 80%, respectively. The IC50 in data set [3] was 6.06 µM.

As to `NC(=O)c1ccc(F)c2c1CC(N(CCCCn1ccc3ccc(F)cc31)CC1CC1)CO2` (stereo not shown) [Compound 195, 3-{(Cyclopropylmethyl)[4-(6-fluoro-1H-indol-1-yl)butyl]amino}-8-fluorochromane-5-carboxamide], the inhibition constant Ki worked out at 0.00325 µM on 5-HT1A receptor [1] and 0.0125 µM at serotonin transporter. This compound also returned an EC50 at 5-HT1A receptor [2] of 0.0219 µM. The Emax at 5-HT1A receptor [2] (in brackets after EC50 or IC50) stood at 58%; in data set [3] (setting [4]), 100%. Besides, the 50% inhibitory concentration (IC50) in data set [3] came out at 0.371 µM.

On to `NC(=O)c1ccc(F)c2c1CC(N(CCCCc1c[nH]c3ccc(F)cc13)C1CCC1)CO2` (stereo not shown) [Compound 83, 3-{cyclobutyl[4-(5-fluoro-1H-indol-3-yl)butyl]amino}-8-fluorochromane-5-carboxamide], for which the Ki on 5-HT1A receptor [1] was 0.0048 µM; at serotonin transporter it was 0.0146 µM. The IC50 at 5-HT1A receptor [2] (cells marked IC50 (antagonist), read-out: 5-HT1A Function cAMP IC50) amounted to 0.0236 µM; in data set [3], 0.351 µM. The Emax on 5-HT1A receptor [2] (in brackets after EC50 or IC50) worked out at 0%; in data set [3] (setting [4]), 100%.
